The subject of this assay is Samenblasen- und Prostatagewichts von Ratten. As to the kind of experiment: Antiandrogenic effect: inhibition of the testosterone propionate-induced increase in seminal vesicle and prostate weight of rats after subcutaneous administration. Format: in vivo. The following applies: for Testosteronpropionat-Hemmung Prostata / Testosteronpropionat-Hemmung Samenblase: rats, subcutaneous administration, Dosis 0,3 mg/Tag per animal; for Testosteronpropionat-Hemmung Prostata: prostate weight; for Testosteronpropionat-Hemmung Samenblase: seminal vesicle weight. The source says: Die neuen Verbindungen der allgemeinen Formel 1 besitzen starke antiandrogene Wirkung.

Results on 2 molecules are retold here after patent EP0044495B1, “16-Beta ethyl steroids, compositions containing them and process for their preparation” (SCHERING AKTIENGESELLSCHAFT, priority 1980, dated 1982).

In the case of `CC[C@H]1C[C@H]2[C@@H]3CCC4=CC(=O)CCC4=C3CC[C@]2(C)[C@H]1O` [A, 16ß-Ethyl-17ß-hydroxy-4,9(10)-estradien-3-on], the “Testosteronpropionat-Hemmung Prostata” value is reported as 18% and the “Testosteronpropionat-Hemmung Samenblase” value was 34%. Further, the “antiandrogene Wirkung” value (result in words, comparison of A with B at 0,3 mg pro Tier und Tag, or general statement) is “signifikant wirksamer”.

As for `CC[C@H]1C[C@H]2[C@@H]3CCC4=CC(=O)CC[C@@H]4[C@H]3CC[C@]2(C)[C@H]1O` [B, 16ß-Ethyl-17ß-hydroxy-4-estren-3-on, reference compound], the “Testosteronpropionat-Hemmung Prostata” value was determined as 0% and the “Testosteronpropionat-Hemmung Samenblase” value was 13%.
